This is an account of results in ChEMBL document CHEMBL1201862, “PubChem BioAssay data set” (2004).

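48-hour exposure; five concentrations; linearly interpolated endpoints. Abbreviation: GI50, concentration required for 50% inhibition of growth.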 Activity calls are given as the source filed them. Rule as the data show it: active = GI50 up to about 1.1 µM and inactive = higher.

Some test systems named below: OVCAR-4; OVCAR-3; RXF 393; SNB-19; HCT-15; SF-295; K562; SN12C; HOP-62; SK-MEL-28; NCI-H460; OVCAR-8; PC-3; M14; RPMI-8226; MOLT-4; SK-MEL-2; HCT-116; SF-539; ACHN.
Assay in all cases: NCI anticancer screen, dose series, 48 h

For `Cc1ccc(NC(=O)c2ccc(OP(=O)(O)Nc3ccc(C)cc3)cc2)cc1`, the GI50 is > 100 µM (inactive) with OVCAR-4; > 100 µM (inactive) in the test on OVCAR-3; 50.7 µM (inactive) in the test with RXF 393; > 100 µM (inactive) in the test with SNB-19; > 100 µM in the test on HCT-15; > 100 µM (inactive) in the test on SF-295. Further, the GI50 in the test on K562, with SN12C, with HOP-62, in the test with SK-MEL-28, in the test with NCI-H460 and in the test with OVCAR-8 was > 100 µM (inactive) each time. Besides, the GI50 with PC-3 was > 100 µM (inactive); in the test with M14, 64.4 µM (inactive); in the test on RPMI-8226 it was > 100 µM (inactive); in the test on MOLT-4 it was > 100 µM (inactive); with SK-MEL-2, 12 µM (inactive); in the test with HCT-116, > 100 µM (inactive). For the same compound, the GI50 in the test on SF-539 and with ACHN was > 100 µM (inactive) each time.

As to `C=C(C)[C@@H](C(=O)OC)N1C(=O)c2ccccc2C1=O`, the GI50 is > 100 µM (inactive) with OVCAR-4; > 100 µM (inactive) in the test on OVCAR-3; > 100 µM (inactive) with RXF 393; > 100 µM (inactive) in the test on SNB-19; > 100 µM in the test with HCT-15; > 100 µM (inactive) in the test on SF-295. The GI50 with K562, in the test with SN12C, in the test with HOP-62, with SK-MEL-28, in the test on NCI-H460 and with OVCAR-8 was > 100 µM (inactive) in each case. For the same compound, the GI50 with PC-3, in the test with M14, in the test on RPMI-8226, in the test on MOLT-4, in the test on SK-MEL-2 and in the test on HCT-116 was > 100 µM (inactive) throughout. The GI50 in the test on SF-539 and with ACHN was > 100 µM (inactive) each time.

With `OC(COc1ccccc1)CN1CCCCC1` (stereo not given), the GI50 in the test with OVCAR-4 was > 100 µM (inactive); in the test with OVCAR-3, > 100 µM (inactive); with RXF 393, > 100 µM (inactive); in the test on SNB-19, > 100 µM (inactive); in the test with HCT-15, > 100 µM; in the test on SF-295, > 100 µM (inactive). Besides, the GI50 with K562, in the test on SN12C, in the test with HOP-62, in the test with SK-MEL-28, in the test with NCI-H460 and in the test on OVCAR-8 was > 100 µM (inactive) each time. Moreover, the GI50 in the test on PC-3, with M14, in the test on RPMI-8226, in the test on MOLT-4, in the test with SK-MEL-2 and in the test on HCT-116 was > 100 µM (inactive) throughout. The GI50 in the test with SF-539 and with ACHN was > 100 µM (inactive) in each case.

With `Cc1cc(O)nc(NN2C(Cl)C(=O)C2c2ccc(O)cc2)n1` (stereo not given), the GI50 is 6.95 µM (inactive) in the test with OVCAR-4; 6.28 µM (inactive) with OVCAR-3; 4.26 µM (inactive) with RXF 393; 11 µM (inactive) in the test with SNB-19; 4.31 µM in the test on HCT-15; 9.48 µM (inactive) in the test on SF-295. In addition, the GI50 in the test on K562 was 2.37 µM (inactive); in the test on SN12C, 11.2 µM (inactive); in the test with HOP-62, 6.17 µM (inactive); in the test with SK-MEL-28, 11.1 µM (inactive); in the test on NCI-H460, 4.8 µM (inactive); in the test with OVCAR-8 it was 12.6 µM (inactive). Moreover, the GI50 with PC-3 was 13.2 µM (inactive); in the test with M14 it was 11.4 µM (inactive); in the test on RPMI-8226, 2.22 µM (inactive); with MOLT-4 it was 5.33 µM (inactive); with SK-MEL-2, 12.6 µM (inactive); in the test with HCT-116, 4.81 µM (inactive). Moreover, the values for the GI50 in the test on SF-539 and with ACHN were 8.93 µM (inactive) and 8.07 µM (inactive), respectively.

Take `N#Cc1cc(Sc2ccc(N)c(C#N)c2)ccc1N`: the GI50 in the test with OVCAR-4 was 20.4 µM (inactive); with OVCAR-3 it was 34.7 µM (inactive); with RXF 393 it was 29.4 µM (inactive); in the test on SNB-19, 14.8 µM (inactive); in the test with HCT-15 it was 9.51 µM; in the test on SF-295, 17.6 µM (inactive). For the same compound, the GI50 was 3.44 µM (inactive) with K562; 48.4 µM (inactive) in the test with SN12C; 41.9 µM (inactive) in the test on HOP-62; 55.2 µM (inactive) with SK-MEL-28; 15.5 µM (inactive) in the test with NCI-H460; 20.4 µM (inactive) in the test with OVCAR-8. The GI50 with PC-3 was 22.8 µM (inactive); in the test with M14 it was 11.9 µM (inactive); in the test on RPMI-8226, 12.8 µM (inactive); in the test with MOLT-4, 25.4 µM (inactive); in the test with SK-MEL-2, 30.3 µM (inactive); in the test on HCT-116 it was 12.1 µM (inactive). Also, the values for the GI50 in the test on SF-539 and with ACHN were 11.1 µM (inactive) and 31.2 µM (inactive), respectively.

`Cn1c(=O)cc(NCCc2ccccc2)[nH]c1=O`: the GI50 in the test on OVCAR-4 is > 100 µM (inactive); in the test on OVCAR-3 it was 16.1 µM (inactive); in the test on RXF 393 it was 57.8 µM (inactive); in the test with SNB-19 it was 77.8 µM (inactive); with HCT-15 it was 29.3 µM; in the test on SF-295 it was 20.9 µM (inactive). Besides, the GI50 was 19.1 µM (inactive) in the test with K562; 23.3 µM (inactive) in the test on SN12C; 30 µM (inactive) in the test with HOP-62; 67.8 µM (inactive) in the test on SK-MEL-28; 34.2 µM (inactive) in the test on NCI-H460; 43.4 µM (inactive) in the test with OVCAR-8. Also, the GI50 is 13 µM (inactive) in the test with PC-3; 27.8 µM (inactive) with M14; 6.12 µM (inactive) in the test on RPMI-8226; 35.2 µM (inactive) in the test on MOLT-4; 51.1 µM (inactive) in the test with SK-MEL-2; 34.2 µM (inactive) in the test on HCT-116. Moreover, the GI50 in the test with SF-539 is 39.4 µM (inactive); in the test on ACHN, 39.3 µM (inactive).

For the compound `c1ccc(/C(=N/Nc2cnccn2)c2ncccn2)cc1`, the GI50 in the test with OVCAR-4 was 67.9 µM (inactive); in the test with OVCAR-3, 30.8 µM (inactive); in the test on RXF 393, > 100 µM (inactive); in the test on SNB-19 it was > 100 µM (inactive); with HCT-15, 50.6 µM; in the test on SF-295, > 100 µM (inactive). The GI50 with K562 was > 100 µM (inactive); with SN12C it was > 100 µM (inactive); in the test on HOP-62, 53.5 µM (inactive); in the test on SK-MEL-28, > 100 µM (inactive); in the test with NCI-H460, > 100 µM (inactive); with OVCAR-8, 46 µM (inactive). Moreover, the GI50 is > 100 µM (inactive) in the test with PC-3; 78.2 µM (inactive) in the test on M14; > 100 µM (inactive) in the test with RPMI-8226; 28.6 µM (inactive) in the test with MOLT-4; > 100 µM (inactive) in the test with SK-MEL-2; > 100 µM (inactive) in the test on HCT-116. Moreover, the values for the GI50 in the test on SF-539 and in the test on ACHN were > 100 µM (inactive) and 40.7 µM (inactive), respectively.

For the compound `CCOC(=O)/C=C(/C(=O)OCC)n1cc(C)c(=O)[nH]c1=O`, the GI50 is 4.93 µM (inactive) in the test on OVCAR-4; 2.68 µM (inactive) with OVCAR-3; 1.95 µM (inactive) with RXF 393; 17.3 µM (inactive) in the test on SNB-19; 2.04 µM in the test on HCT-15; 17.3 µM (inactive) with SF-295. The GI50 in the test on K562 was 1.9 µM (inactive); in the test with SN12C, 5.06 µM (inactive); with HOP-62, 18.9 µM (inactive); in the test with SK-MEL-28, 4.78 µM (inactive); in the test with NCI-H460, 14.6 µM (inactive); in the test on OVCAR-8, 4.62 µM (inactive). The GI50 was 8.15 µM (inactive) in the test with PC-3; 1.95 µM (inactive) with M14; 2.47 µM (inactive) in the test with RPMI-8226; 2.44 µM (inactive) with MOLT-4; 7 µM (inactive) in the test with SK-MEL-2; 2.43 µM (inactive) in the test on HCT-116. Also, the GI50 with SF-539 was 13.2 µM (inactive); in the test on ACHN, 2.72 µM (inactive).

`OC(CCN1CCN(CCOC(c2ccc(F)cc2)c2ccc(F)cc2)CC1)c1ccccc1` (stereo not given): the GI50 was 16.1 µM (inactive) in the test with OVCAR-4; 15.3 µM (inactive) with OVCAR-3; 11.1 µM (inactive) in the test on RXF 393; 16.9 µM (inactive) in the test with SNB-19; 13.6 µM in the test on HCT-15; 18.3 µM (inactive) in the test with SF-295. Moreover, the GI50 in the test on K562 is 4.56 µM (inactive); in the test on SN12C, 15.2 µM (inactive); in the test on HOP-62, 18 µM (inactive); in the test with SK-MEL-28, 17.5 µM (inactive); with NCI-H460, 16.7 µM (inactive); in the test on OVCAR-8, 12.9 µM (inactive). Moreover, the GI50 with PC-3 is 13.6 µM (inactive); with M14, 14.7 µM (inactive); in the test with RPMI-8226, 15.7 µM (inactive); in the test with MOLT-4 it was 12.1 µM (inactive); in the test with SK-MEL-2 it was 15.3 µM (inactive); in the test with HCT-116, 13.4 µM (inactive). Further, the GI50 was 11.1 µM (inactive) with SF-539 and 12.9 µM (inactive) in the test with ACHN.

Consider `N#CC(Cl)CS(=O)(=O)c1ccccc1` (stereo not given), for which the GI50 is 2.03 µM (inactive) with OVCAR-4; 2.71 µM (inactive) in the test on OVCAR-3; 2.35 µM (inactive) in the test with RXF 393; 18.9 µM (inactive) in the test with SNB-19; 2.14 µM in the test on HCT-15; 18.7 µM (inactive) in the test on SF-295. Also, the GI50 in the test on K562 was 1.97 µM (inactive); with SN12C it was 16.5 µM (inactive); with HOP-62, > 44.6 µM (inactive); in the test on SK-MEL-28, 13.3 µM (inactive); in the test with NCI-H460, 18.6 µM (inactive); in the test on OVCAR-8, 6.7 µM (inactive). Also, the GI50 in the test with PC-3 is 17.5 µM (inactive); in the test on M14, 4.76 µM (inactive); in the test on RPMI-8226, 3.32 µM (inactive); with MOLT-4, 1.34 µM (inactive); in the test on SK-MEL-2 it was 16.1 µM (inactive); with HCT-116, 4.34 µM (inactive). In addition, the GI50 is 14.9 µM (inactive) in the test on SF-539 and 4.41 µM (inactive) in the test on ACHN.
